The record followed here is US20260001928A1 (CORTERIA PHARMACEUTICALS, priority 2022, published 2026).

One assay has as its target T1, CFR1R receptor (Homo sapiens, UniProt P34998).
T1 construct: host or cells: CHO-K1 (clone 2)
T1 sequence (P34998 24-415): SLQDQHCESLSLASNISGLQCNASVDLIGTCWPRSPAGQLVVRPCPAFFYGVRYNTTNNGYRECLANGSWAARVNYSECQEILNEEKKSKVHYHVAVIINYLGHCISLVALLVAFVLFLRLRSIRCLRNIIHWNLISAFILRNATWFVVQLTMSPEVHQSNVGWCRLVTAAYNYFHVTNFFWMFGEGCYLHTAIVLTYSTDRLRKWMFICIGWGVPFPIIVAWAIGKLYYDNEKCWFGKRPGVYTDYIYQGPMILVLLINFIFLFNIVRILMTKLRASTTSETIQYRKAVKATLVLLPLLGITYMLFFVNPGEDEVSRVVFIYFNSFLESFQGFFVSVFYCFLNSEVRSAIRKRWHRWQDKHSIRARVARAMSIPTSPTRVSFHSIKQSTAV
Put plainly: Activity at anti-target CFR1R receptor, cAMP assay in CRF1R-overexpression CHO-K1 cells. It is filed as cell-based. To be noted: 100% = Sauvagine at 100 nM; for EC50: cAMP. In a few lines: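 Uses frozen stocks of CHO-K1 clone 2 cells overexpressing human CRF1R, plated at 4000 cells/well final, with cAMP measured by the same protocol as the TeloHAEC line. Full-activation control: 100 nM Sauvagine.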
(Cyclic AMP is a second messenger, typically raised through Gs and lowered through Gi signalling.)

In another assay the target is T2, human CRF2a receptor (Homo sapiens, UniProt Q13324).
T2 construct: expressed in transfected cells; host or cells: TeloHEAC cells
T2 sequence (Q13324 1-411): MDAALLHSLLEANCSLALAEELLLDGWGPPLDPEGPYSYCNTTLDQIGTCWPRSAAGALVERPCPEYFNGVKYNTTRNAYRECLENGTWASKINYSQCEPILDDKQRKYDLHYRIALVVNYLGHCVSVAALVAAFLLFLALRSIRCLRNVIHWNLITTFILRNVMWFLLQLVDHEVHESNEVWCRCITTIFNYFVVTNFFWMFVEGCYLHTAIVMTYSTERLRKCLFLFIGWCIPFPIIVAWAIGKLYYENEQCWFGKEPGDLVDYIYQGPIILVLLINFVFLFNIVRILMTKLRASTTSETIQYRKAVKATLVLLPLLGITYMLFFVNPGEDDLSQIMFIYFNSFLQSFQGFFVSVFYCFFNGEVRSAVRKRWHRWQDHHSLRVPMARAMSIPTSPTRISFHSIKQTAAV
Put plainly: Activity at human CRF2a receptor, cAMP functional assay in TeloHEAC cells. In kind it is cell-based. To be noted: TeloHEAC cells stably expressing human CRF2a receptor, relative to urocortin 2 (100 nM = 100%). The essentials: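 TeloHEAC cells stably expressing human CRF2a (10000 cells/well, suspended in HBSS/20 mM HEPES with 2 mM IBMX) were exposed to compounds for 30 min at 37 °C. cAMP was read as the 665/620 nm fluorescence ratio after 1 h at room temperature. EC50 was derived relative to 100 nM urocortin 2, set as 100%.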

*1 amine or outer side, *2 acyl side, *3 side chain or, on linkers, in order; H or OH if unused. Where a SMILES comes first, the peptide text is derived from it. Side-chain parts run from the residue outwards. [ ]: non-standard residue; d: D form. The star is where a group is joined. C18 diacid = O=C(O)CCCCCCCCCCCCCCCCC(=O)*; γGlu = O=C(O)[C@H](CCC(=O)[*:2])N[*:1]; Dap = NC[C@H](N)C(=O)O Bounds are passed on as bounds.

As usually defined, the EC50 is the midpoint of the concentration-response curve. Turning to `CC[C@H](C)[C@H](NC(C)=O)C(=O)N[C@H](C(=O)N[C@@H](CC(C)C)C(=O)N[C@@H](CO)C(=O)N[C@@H](CC(C)C)C(=O)N[C@@H](CC(=O)O)C(=O)N[C@@H](C(=O)N1CCC[C@H]1C(=O)N[C@H](C(=O)N[C@@H](CCCCN)C(=O)N[C@@H](CC(C)C)C(=O)N[C@@H](CCCCNC(=O)CC[C@H](NC(=O)CCCCCCCCCCCCCCCCC(=O)O)C(=O)O)C(=O)N[C@@H](CCCCN)C(=O)N[C@H](C(=O)N[C@@H](CC(C)C)C(=O)N[C@@H](CC(C)C)C(=O)N[C@@H](CCC(=O)O)C(=O)N[C@@H](CCC(N)=O)C(=O)N[C@@H](CCC(=O)O)C(=O)N[C@@H](CCCCN)C(=O)N[C@@H](CCC(N)=O)C(=O)N[C@@H](CCCCN)C(=O)N[C@@H](CCCCN)C(=O)N[C@@H](CCC(N)=O)C(=O)N[C@@H](CCCNC(=N)N)C(=O)N[C@@H](CCC(=O)O)C(=O)N[C@@H](CCC(N)=O)C(=O)N[C@@H](C)C(=O)N[C@@H](CCC(=O)O)C(=O)N[C@H](C(=O)N[C@@H](CC(N)=O)C(=O)N[C@@H](CN)C(=O)N[C@@H](CCC(N)=O)C(=O)N[C@H](C(=O)N[C@@H](CC(C)C)C(=O)N[C@@H](C)C(=O)N[C@@H](CCC(N)=O)C(=O)N[C@H](C(N)=O)C(C)C)[C@@H](C)CC)[C@@H](C)O)[C@@H](C)CC)[C@@H](C)CC)C(C)C)C(C)C` [compound 128] (Ac-IVLSLD[dV]PIKLK([γGlu-C18 diacid])KILLEQEKQKKQREQAETN[Dap]QILAQV-NH2), at CFR1R receptor, the “Emax (% I)” value was 10 % I and the EC50 was greater than 250 nM. In addition, at human CRF2a receptor, the EC50 is 0.17 nM.
As for `CC[C@H](C)[C@H](NC(C)=O)C(=O)N[C@H](C(=O)N[C@@H](CC(C)C)C(=O)N[C@@H](CO)C(=O)N[C@@H](CC(C)C)C(=O)N[C@@H](CC(=O)O)C(=O)N[C@@H](C(=O)N1CCC[C@H]1C(=O)N[C@H](C(=O)N[C@@H](CCCCN)C(=O)N[C@@H](CC(C)C)C(=O)N[C@@H](CCCCNC(=O)CC[C@H](NC(=O)CCCCCCCCCCCCCCCCC(=O)O)C(=O)O)C(=O)N[C@@H](CCCCN)C(=O)N[C@H](C(=O)N[C@@H](CC(C)C)C(=O)N[C@@H](CC(C)C)C(=O)N[C@@H](CCC(=O)O)C(=O)N[C@@H](CCC(N)=O)C(=O)N[C@@H](CCC(=O)O)C(=O)N[C@@H](CCCCN)C(=O)N[C@@H](CCC(N)=O)C(=O)N[C@@H](CCCCN)C(=O)N[C@@H](CCCCN)C(=O)N[C@@H](CCC(N)=O)C(=O)N[C@@H](CCCNC(=N)N)C(=O)N[C@@H](CCC(=O)O)C(=O)N[C@@H](CCC(N)=O)C(=O)N[C@@H](C)C(=O)N[C@@H](CCC(=O)O)C(=O)N[C@H](C(=O)N[C@@H](CC(N)=O)C(=O)N[C@@H](C)C(=O)N[C@@H](CCC(N)=O)C(=O)N[C@H](C(=O)N[C@@H](CC(C)C)C(=O)N[C@@H](C)C(=O)N[C@@H](CCC(N)=O)C(=O)N[C@H](C(N)=O)C(C)C)[C@@H](C)CC)[C@@H](C)O)[C@@H](C)CC)[C@@H](C)CC)C(C)C)C(C)C` [compound 126] (Ac-IVLSLD[dV]PIKLK([γGlu-C18 diacid])KILLEQEKQKKQREQAETNAQILAQV-NH2), at CFR1R receptor, the “Emax (% I)” value came out at 20 % I and the EC50 is greater than 250 nM. In addition, the EC50 at human CRF2a receptor came out at 0.05 nM.
